From patent US6906078B2, “Method of using (H+/K+) ATPase inhibitors as antiviral agents” (Pharmacia Corporation, priority 1994, dated 2005)
Read-outs that look alike come from different tables or passages of the source.

Key:
gastric acid secretion [1] = assay: Inhibition of gastric acid secretion in gastric fistula beagle dogs (histamine-stimulated); assay type: in vivo; conditions: Canis lupus familiaris, 4 h, histamine-stimulated, four-hour period, read-out: Gastric-Fistula Beagle % Inhibition (3 mg/kg dose)
Procedure, shortened: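 Conscious, 18 h-fasted female beagles with gastric (or duodenal) cannulas received compound i.v., i.g. or i.d. after a 30-min basal period, then 4 h i.v. histamine dihydrochloride at 15 mcg/kg/h. Gastric volume, acid concentration and total acid output collected every 30 min; percent inhibition versus controls, ED50 from dose-response curves.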

HCMV (strain AD169) = assay: Antiviral assay: HCMV antigen ELISA in infected human foreskin fibroblasts (MRHF); assay type: cell-based, human cytomegalovirus; conditions: Human betaherpesvirus 5, Fibroblast; MRHF cells, HCMV AD169, moi 0.2, 96 hours; read-out: HCMV cell EC50
Source text: These complimentary assays tested the ability of a compound to inhibit the production of new virus and the toxicity of the compound to the host cells. It was important that both assays be performed simultaneously in order to compare the results directly since, toxicity may indirectly reduce viral yield.
Viral yield was estimated by measuring the amount of a viral antigen produced 4 days post infection with a monoclonal antibody to an abundant “immediate early” viral protein. An enzyme-linked (horseradish peroxidase) secondary antibody specific to the primary (mouse) antibody was used to measure the amount of viral antigen. Test compounds were diluted to 2-times the desired final concentration in DMEM+5% FBS. One hundred microliters of this solution was placed in each well of a 96-well plate. This was performed once for the antiviral 96-well plate and again for a cytotoxicity plate. Two controls were also included for both plates; a no drug control and a ganciclovir control. Ganciclovir was included because it has known antiviral activity for HCMV. All cells were prepared by harvesting human foreskin fibroblasts, MRHF, with trypsin and re-suspending at a concentration of 5×10^5 cells per ml in DMEM. Infected cells were prepared by infecting these with HCMV (strain AD169) at a multiplicity of infection=0.2. One hundred microliters of uninfected cells (5×10^4 cells) were added to the appropriate wells of the cytotoxicity plate. In a similar manner 100 μl of infected cells (5×10^4 cells) were added to the appropriate wells of the antiviral plate. Additionally, uninfected cells not treated with test compound were included as controls on the antiviral plate. Plates were incubated for 96 hours at 37° C. in 5% CO2 atmosphere and processed to measure the amount of viral antigen and toxicity.
The following was performed on the antiviral plate only. Media was removed and cells were fixed with 1:1 acetone:methanol for 15 minutes at −20° C. Fixative was removed and cells were washed once with PBS containing 0.05% Tween20. In order to block nonspecific binding of antibodies each well was incubated with PBS containing 3% (w/v) bovine serum albumin (BSA) for 1 hour at 22° C. The blocking solution was removed and the cells were washed once with PBS containing 0.05% Tween20 before incubating with 1:100 dilution of primary antibody in PBS containing 3% BSA for 2 hours at 22° C. The primary antibody was a monoclonal antibody (mouse source) specific to the immediate early nuclear antigen of HCMV and was commercially available (Dupont). The 10 antibody solution was removed and the plate was rinsed 5 times with PBS containing 1% (v/v) Triton X-100 (PBST) before incubating with secondary antibody diluted 1:1000 in PBS containing 3% BSA for 2 hours at 22° C. The secondary antibody (goat source) recognized the murine-specific determinants of the 1° antibody and was covalently linked to horseradish peroxidase (Sigma). The plate was rinsed 5 times with PBST and once with deionized water before adding 100 μl TMB substrate solution and incubating 30 minutes at 22° C. The reaction was stopped by adding 100 μL of phosphoric acid and the OD at 450 nm recorded. TMB (3,3′,5,5′ tetramethylbenzidine) was the substrate for the horseradish peroxidase linked to the 2° antibody. […] Antiviral activity was calculated by comparing the amount of viral antigen produced in drug treated wells with that produced in wells absent of drug.

gastric acid secretion [2] = assay: Inhibition of gastric acid secretion in meal-stimulated Pavlov pouch dog; assay type: in vivo, beagle dogs; conditions: 3 mg/kg, four-hour period
Procedure: Adult female beagle dogs weighing 6 to 10 kilograms were obtained from Laboratory Research Enterprises (Kalamazoo, Mich.) or from Hazelton Research Animals (Cumberland, Va.). Surgical implantation of a Thomas-type gastric cannula into an innervated Pavlov pouch of each dog was performed by the method reported by L. Burrows et al., J. Surgical Res., 4, 147 (1964). After recovery from surgery, the dogs were trained to stand quietly, fully conscious, in Pavlov-type dog restraining slings. All dogs were deprived of food, but not water, for 24 hours prior to each assay. Basal acid secretion was measured by collecting from the cannulas for 30 minutes before dosing with a test compound. Solutions of the test compounds in iso-osmotic phosphate buffer (pH 7.4) were given either intravenously or directly into the Pavlov pouch. After 30 minutes the pouch was drained. The dogs were then fed 320 grams of dog food and gastric acid secretions were collected each half hour for four hours. Controls were determined in the same way except that only food (i.e., no test compound) was administered.
Data were analyzed for three different variables: volume of gastric juice, acid concentration, and total acid output. Percent inhibition for the four-hour experimental period was determined for each parameter by comparison with 3 to 4 controls. Estimates of ED50 were determined from dose response curves.

`COc1ccc2[nH]c([S+]([O-])Cc3c(N)cc(C)c(OC)c3C)nc2c1` (stereo not drawn) [Example 78, 2-[[(5-Methoxy-1H-benzimidazol-2-yl)sulfinyl]methyl]-4-methoxy-3,5-dimethylbenzenamine] showed an inhibition in vivo at 3 mg/kg (gastric acid secretion [1]; intraduodenal, 3 mg/kg i.d.) of 31% and an EC50 (HCMV (strain AD169)) of 22 µM.

With `COc1ccc(N)c(C[S+]([O-])c2nc3ccccc3[nH]2)c1` (stereo not drawn) [Example 20, 2-[(1H-Benzimidazol-2-ylsulfinyl)methyl]-4-methoxybenzenamine] the inhibition in vivo at 3 mg/kg (gastric acid secretion [1]; iv, 3 mg/kg i.v.) was 37% and the “Pavlov-Pouch Dog % Inhibition (dose (mg/kg))” value (gastric acid secretion [2]) was 22 (3 mg/kg) %.

Compound `COc1ccc2[nH]c([S+]([O-])Cc3ncc(C)c(OC)c3C)nc2c1` (stereo not drawn) [omeprazole, reference compound] has an EC50 (HCMV (strain AD169)) of 93 µM.

`Cc1ccc2[nH]c([S+]([O-])Cc3ccccc3N)nc2c1` (stereo not drawn) [Example 41, 2-[[(5-Methyl-1H-benzimidazol-2-yl)sulfinyl]-methyl]benzenamine] gave an EC50 (HCMV (strain AD169)) of 59 µM.

`Nc1ccccc1C[S+]([O-])c1nc2cc(Cl)ccc2[nH]1` (stereo not drawn) [Example 43, 2-[[(5-Chloro-1H-benzimidazol-2-yl)sulfinyl]-methyl]benzenamine] showed an EC50 (HCMV (strain AD169)) of 23 µM.

For `Cc1ccc(C[S+]([O-])c2nc3ccccc3[nH]2)c(N)c1C` (stereo not drawn) [Example 53, 2-[(1H-Benzimidazol-2-ylsulfinyl)methyl]-5,6-dimethylbenzenamine ¼ hydrate], the inhibition in vivo at 3 mg/kg (gastric acid secretion [1]; intraduodenal, 3 mg/kg i.d.) was 79% and the EC50 (HCMV (strain AD169)) was 13 µM.
